Experiment [1] concerns the target Ras and Rab interactor 1/Tyrosine-protein kinase ABL1 (Homo sapiens, UniProt P00519+Q13671). Format: functional.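 Further: biochemical TR-FRET dose-response test measuring inhibition of binding between Rin1 and Abl proteins.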
Experiment [2] has as its target T1, Sentrin-specific protease 7 (Homo sapiens, UniProt Q9BQF6).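 Further: Luminescence-based dose-response confirmation of ultra-high-throughput screening hits, measuring inhibition of SENP7.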
T1 sequence (Q9BQF6 whole entry): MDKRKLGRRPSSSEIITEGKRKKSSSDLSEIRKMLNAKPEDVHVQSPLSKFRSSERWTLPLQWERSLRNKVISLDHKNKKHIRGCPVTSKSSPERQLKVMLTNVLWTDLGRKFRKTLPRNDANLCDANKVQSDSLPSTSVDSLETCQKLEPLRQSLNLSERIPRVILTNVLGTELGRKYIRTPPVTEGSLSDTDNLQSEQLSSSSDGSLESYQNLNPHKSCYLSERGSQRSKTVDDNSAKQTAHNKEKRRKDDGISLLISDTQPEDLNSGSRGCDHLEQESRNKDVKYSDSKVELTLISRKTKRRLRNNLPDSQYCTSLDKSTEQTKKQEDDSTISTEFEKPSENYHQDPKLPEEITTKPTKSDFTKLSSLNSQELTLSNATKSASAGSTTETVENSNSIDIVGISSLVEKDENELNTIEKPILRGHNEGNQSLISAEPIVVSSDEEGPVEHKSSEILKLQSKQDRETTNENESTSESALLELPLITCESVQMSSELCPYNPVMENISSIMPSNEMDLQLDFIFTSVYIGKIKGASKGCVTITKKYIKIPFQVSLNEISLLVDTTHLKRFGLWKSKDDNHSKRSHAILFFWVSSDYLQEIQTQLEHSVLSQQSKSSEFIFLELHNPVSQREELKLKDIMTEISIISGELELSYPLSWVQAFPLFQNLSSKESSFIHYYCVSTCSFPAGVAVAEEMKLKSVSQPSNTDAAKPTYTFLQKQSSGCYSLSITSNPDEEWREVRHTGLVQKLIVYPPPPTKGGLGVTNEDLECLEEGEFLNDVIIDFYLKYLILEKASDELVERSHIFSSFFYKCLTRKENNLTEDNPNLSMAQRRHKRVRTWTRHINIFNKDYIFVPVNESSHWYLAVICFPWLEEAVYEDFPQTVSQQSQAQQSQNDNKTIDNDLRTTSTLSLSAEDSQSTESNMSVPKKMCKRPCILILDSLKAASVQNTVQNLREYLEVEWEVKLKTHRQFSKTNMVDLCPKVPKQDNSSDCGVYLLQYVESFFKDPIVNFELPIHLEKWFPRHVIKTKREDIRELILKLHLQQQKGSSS
It counts as functional.

In the next experiment the target is T2, Caspase-3 (Homo sapiens, UniProt P42574).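 Further: Dose-response selectivity test against caspase-3 for candidate inhibitors of sentrin-specific proteases (SENPs).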
T2 sequence (P42574 whole entry): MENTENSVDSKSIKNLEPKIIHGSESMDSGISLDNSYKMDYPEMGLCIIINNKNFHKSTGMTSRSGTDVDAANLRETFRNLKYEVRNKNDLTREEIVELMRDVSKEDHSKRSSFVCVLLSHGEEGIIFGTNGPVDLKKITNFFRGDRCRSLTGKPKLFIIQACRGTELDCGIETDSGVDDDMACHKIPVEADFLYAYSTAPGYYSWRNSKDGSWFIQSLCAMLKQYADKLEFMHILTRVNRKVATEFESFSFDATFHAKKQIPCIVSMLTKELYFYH
Format: functional.

In experiment [3] the target is T3, Sentrin-specific protease 6 (Homo sapiens, UniProt Q9GZR1).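 Further: Luminescence-based dose-response confirmatory assay of SENP6 inhibition, following up an ultra-high-throughput screen.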
T3 sequence (Q9GZR1 whole entry): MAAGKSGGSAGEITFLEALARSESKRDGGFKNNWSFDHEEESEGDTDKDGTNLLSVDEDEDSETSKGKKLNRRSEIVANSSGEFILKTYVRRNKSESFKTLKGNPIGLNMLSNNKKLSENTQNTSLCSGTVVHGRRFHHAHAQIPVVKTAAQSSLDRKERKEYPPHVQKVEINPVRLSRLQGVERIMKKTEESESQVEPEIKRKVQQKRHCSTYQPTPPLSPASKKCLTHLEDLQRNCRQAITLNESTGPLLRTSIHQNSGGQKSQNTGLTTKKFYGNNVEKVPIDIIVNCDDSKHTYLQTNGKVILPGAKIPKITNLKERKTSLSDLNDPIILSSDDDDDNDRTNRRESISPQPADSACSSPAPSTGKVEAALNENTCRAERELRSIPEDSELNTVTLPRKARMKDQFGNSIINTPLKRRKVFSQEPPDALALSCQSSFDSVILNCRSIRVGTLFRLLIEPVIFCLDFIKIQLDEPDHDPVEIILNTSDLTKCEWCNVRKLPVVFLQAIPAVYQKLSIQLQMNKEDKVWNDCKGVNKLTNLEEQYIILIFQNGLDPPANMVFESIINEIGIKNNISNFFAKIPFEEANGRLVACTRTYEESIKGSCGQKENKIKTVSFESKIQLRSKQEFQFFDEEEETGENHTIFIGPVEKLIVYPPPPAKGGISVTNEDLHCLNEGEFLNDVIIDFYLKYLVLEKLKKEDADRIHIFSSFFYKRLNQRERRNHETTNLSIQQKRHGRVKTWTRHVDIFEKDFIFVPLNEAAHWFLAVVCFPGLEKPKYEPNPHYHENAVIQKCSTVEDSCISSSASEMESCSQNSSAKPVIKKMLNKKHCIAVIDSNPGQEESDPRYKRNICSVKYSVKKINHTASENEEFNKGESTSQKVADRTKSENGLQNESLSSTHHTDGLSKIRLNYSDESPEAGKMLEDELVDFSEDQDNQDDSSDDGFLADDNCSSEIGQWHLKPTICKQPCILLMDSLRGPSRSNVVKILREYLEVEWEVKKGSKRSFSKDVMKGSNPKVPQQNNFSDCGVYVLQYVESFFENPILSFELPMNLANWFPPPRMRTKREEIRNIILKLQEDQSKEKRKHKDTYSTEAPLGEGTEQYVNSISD
It counts as functional.

Experiment [4] concerns the target T4, Sentrin-specific protease 8 (Homo sapiens, UniProt Q96LD8).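 Further: luminescence read-out of SENP8 inhibition, dose-response confirmation following an ultra-high-throughput screen.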
T4 sequence (Q96LD8 whole entry): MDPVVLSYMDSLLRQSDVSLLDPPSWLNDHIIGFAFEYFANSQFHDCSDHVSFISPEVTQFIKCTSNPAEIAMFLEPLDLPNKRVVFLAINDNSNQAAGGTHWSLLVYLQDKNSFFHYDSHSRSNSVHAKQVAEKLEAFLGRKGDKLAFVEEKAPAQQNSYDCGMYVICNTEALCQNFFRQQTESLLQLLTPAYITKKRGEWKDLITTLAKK
It counts as functional.

Experiment [5] concerns the target T5, Heat shock factor protein 1 (Mus musculus, UniProt P38532).
T5 sequence (P38532 whole entry): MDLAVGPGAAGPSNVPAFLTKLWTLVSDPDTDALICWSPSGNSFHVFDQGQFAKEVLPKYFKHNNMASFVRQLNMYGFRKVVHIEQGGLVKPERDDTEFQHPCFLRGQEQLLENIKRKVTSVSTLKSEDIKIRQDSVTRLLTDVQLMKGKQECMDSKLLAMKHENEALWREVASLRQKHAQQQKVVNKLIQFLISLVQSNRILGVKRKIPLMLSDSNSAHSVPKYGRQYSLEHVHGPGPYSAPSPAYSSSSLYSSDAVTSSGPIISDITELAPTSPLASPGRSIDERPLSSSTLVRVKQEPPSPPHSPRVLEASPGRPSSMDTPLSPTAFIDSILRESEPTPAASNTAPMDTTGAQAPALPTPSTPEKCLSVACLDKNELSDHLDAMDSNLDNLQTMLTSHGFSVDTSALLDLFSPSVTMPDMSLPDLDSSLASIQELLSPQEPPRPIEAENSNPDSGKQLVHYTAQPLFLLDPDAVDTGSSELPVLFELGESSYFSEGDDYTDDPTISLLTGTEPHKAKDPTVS
Description: HSF1 potentiators in luciferase reporter cells, confirmation, cell-based, NIH3T3, luminescence, dose retest (AID 435004).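 Further: stress induced by proteasome inhibitor MG132 added 30 min after compound; luciferase reporter driven by HSF1 response element in NIH3T3 cells; actives raise luminescence as potentiators of the MG132 stress response.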 Format: functional.

The nature of experiment [6]: AlphaScreen signal interference compounds, dose response, artefact control for ARNT-TACC3 interaction inhibitor project, biochemical, luminescence, cherry-pick (AID 651705).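 Further: AlphaScreen bead proximity signal that flags compounds interfering with the detection technology; potency reflects signal decrease which marks the compound as an assay artifact.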 Format: functional.
A further experiment has as its target Nonstructural protein 1 (Influenza A virus, UniProt Q194T2). It counts as functional, Influenza A virus (A/California/07/2009(H1N1)).
The next experiment deals with Phospholipase A2 (Homo sapiens, UniProt P04054). Format: functional.
Another experiment deals with T6, Cysteine protease ATG4B (Homo sapiens, UniProt Q9Y4P1).
T6 sequence (Q9Y4P1 whole entry): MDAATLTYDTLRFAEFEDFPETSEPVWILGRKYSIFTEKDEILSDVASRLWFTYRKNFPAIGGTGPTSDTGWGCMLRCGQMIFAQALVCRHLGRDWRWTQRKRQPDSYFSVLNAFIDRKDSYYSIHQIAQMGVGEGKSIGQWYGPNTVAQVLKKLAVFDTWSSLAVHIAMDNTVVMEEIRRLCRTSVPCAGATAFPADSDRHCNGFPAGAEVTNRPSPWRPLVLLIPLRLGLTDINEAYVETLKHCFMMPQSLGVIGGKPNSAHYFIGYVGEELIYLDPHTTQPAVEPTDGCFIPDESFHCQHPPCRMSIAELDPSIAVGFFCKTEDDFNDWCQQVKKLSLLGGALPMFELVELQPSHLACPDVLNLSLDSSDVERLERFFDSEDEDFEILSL
Format: functional.

The nature of experiment [7]: miR-122 activators in hepatoma reporter cells, dose response, cell-based, Huh7 psiCHECK-miR122, Renilla luciferase, cherry-picked (AID 651956).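 Further: huh7 hepatoma cells stably carrying a psiCHECK-2 miR-122 sensor plasmid; renilla luciferase signal reporting endogenous miR-122 activity after 48 h compound exposure.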 Format: functional.
Experiment [8] has as its target T7, Rac GTPase-activating protein 1 (Homo sapiens, UniProt Q9H0H5).
T7 sequence (Q9H0H5 whole entry): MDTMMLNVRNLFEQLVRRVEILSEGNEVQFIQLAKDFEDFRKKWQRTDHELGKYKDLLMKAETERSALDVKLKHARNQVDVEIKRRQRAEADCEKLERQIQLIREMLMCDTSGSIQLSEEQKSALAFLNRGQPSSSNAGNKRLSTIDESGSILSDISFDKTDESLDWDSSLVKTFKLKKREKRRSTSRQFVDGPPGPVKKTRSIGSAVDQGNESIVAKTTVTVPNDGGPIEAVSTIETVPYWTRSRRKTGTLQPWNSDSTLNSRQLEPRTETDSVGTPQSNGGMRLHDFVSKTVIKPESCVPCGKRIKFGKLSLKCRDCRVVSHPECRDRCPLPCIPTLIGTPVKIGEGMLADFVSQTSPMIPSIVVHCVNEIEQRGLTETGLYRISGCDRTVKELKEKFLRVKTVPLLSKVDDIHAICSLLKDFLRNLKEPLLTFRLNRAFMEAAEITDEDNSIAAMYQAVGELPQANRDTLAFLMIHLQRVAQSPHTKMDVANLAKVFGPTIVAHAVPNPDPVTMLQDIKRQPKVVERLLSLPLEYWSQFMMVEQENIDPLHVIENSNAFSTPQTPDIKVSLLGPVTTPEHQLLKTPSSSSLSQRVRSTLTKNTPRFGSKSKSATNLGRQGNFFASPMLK
Description: MgcRacGAP GTPase-activating activity inhibitors, confirmation, biochemical, ADP Hunter fluorescence, primary and confirmatory (AID 624330). Format: functional.

Active and inactive are the calls of the source.

This is an account of results in ChEMBL document CHEMBL1201862, “PubChem BioAssay data set” (2004).

Ras and Rab interactor 1/Tyrosine-protein kinase ABL1, sequence (P00519 whole entry): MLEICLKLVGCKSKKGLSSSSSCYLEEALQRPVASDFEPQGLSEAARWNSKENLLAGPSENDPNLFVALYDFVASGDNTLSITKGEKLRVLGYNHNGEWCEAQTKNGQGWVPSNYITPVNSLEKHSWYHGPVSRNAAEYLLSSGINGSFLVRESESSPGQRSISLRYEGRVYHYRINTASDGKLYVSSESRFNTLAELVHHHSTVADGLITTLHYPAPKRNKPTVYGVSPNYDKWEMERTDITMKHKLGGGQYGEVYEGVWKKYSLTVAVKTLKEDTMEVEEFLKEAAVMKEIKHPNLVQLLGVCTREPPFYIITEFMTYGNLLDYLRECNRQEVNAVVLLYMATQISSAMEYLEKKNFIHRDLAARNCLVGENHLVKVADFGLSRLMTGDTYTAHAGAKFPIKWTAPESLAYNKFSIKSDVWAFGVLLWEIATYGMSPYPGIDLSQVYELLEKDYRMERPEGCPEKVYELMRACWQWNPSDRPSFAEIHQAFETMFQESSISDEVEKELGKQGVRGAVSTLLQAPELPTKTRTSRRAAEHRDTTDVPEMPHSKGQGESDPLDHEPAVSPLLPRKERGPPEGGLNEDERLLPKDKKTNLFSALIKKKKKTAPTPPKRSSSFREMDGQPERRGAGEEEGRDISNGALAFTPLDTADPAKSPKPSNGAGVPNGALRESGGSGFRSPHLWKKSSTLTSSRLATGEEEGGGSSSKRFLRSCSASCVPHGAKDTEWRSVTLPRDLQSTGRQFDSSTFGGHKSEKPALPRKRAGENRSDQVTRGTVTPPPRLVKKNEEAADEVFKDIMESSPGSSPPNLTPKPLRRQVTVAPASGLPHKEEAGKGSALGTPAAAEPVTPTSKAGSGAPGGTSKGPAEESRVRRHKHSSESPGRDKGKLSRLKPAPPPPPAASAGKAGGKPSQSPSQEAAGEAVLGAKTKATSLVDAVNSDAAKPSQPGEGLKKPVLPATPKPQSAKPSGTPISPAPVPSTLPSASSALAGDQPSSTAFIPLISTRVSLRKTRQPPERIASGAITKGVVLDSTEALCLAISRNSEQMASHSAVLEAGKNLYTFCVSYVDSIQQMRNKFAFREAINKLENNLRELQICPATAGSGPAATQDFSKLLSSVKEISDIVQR
Ras and Rab interactor 1/Tyrosine-protein kinase ABL1, sequence (Q13671 whole entry): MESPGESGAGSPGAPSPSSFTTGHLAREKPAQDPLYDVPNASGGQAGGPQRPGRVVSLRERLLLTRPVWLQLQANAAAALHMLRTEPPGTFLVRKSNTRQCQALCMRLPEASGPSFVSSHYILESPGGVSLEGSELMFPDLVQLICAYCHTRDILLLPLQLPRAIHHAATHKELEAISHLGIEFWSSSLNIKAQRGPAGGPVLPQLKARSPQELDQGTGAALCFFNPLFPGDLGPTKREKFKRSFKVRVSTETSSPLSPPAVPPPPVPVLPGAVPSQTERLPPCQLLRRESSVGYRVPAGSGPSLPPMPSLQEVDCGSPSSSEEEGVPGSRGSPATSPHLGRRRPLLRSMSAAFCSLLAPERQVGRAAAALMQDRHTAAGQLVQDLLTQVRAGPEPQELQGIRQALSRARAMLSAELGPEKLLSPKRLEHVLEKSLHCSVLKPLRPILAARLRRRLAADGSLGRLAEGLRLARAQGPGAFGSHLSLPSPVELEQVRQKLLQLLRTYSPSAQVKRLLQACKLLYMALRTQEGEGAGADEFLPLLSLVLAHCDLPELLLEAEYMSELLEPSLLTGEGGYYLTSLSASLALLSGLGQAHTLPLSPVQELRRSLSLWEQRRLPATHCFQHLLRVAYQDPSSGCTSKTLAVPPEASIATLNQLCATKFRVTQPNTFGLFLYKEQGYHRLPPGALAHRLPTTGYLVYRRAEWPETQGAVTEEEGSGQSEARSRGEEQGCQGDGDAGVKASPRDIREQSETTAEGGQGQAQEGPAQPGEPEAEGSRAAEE
Phospholipase A2, sequence (P04054 whole entry): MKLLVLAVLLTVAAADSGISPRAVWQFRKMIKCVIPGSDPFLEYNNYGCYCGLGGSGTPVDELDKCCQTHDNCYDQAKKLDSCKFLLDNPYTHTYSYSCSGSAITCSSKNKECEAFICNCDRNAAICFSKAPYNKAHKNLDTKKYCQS
Nonstructural protein 1, sequence (Q194T2 whole entry): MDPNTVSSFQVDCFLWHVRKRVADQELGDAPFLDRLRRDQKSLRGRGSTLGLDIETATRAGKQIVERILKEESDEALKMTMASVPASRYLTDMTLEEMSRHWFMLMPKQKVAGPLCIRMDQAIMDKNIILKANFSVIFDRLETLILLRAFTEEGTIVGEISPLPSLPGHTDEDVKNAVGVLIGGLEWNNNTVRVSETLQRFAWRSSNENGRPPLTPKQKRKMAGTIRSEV

Turning to `O=C1CNC(=O)/C1=C/NC12CC3CC(CC(C3)C1)C2`, in experiment [1], the IC50 is 19.4 µM (inactive).

`O=C(Nc1ccn(CCCN2CCN(Cc3ccc(F)cc3)CC2)c(=O)n1)OCc1ccccc1`: the IC50 in [1] is 20 µM (inactive).

`Cc1ccc(-n2cc3ccc([N+](=O)[O-])cc3n2)cc1`: the IC50 in experiment [2] was 12.5 µM (active); at Caspase-3, 34.7 µM (active); in experiment [3], 17.2 µM (active); in experiment [4], 59.9 µM (active). Moreover, the EC50 in [5] is > 260 µM (inconclusive).

On to `Oc1nc(SCc2ccc(Cl)cc2)nc2ccsc12`, for which the IC50 in experiment [2] is 8.53 µM (active); at Caspase-3 it was 15.2 µM (active); in [3] it was 6.14 µM (active); in [4], 68.7 µM (active). Besides, in experiment [5], the EC50 is 21.9 µM (active).

`CN1CCC(=O)N(CCOc2ccccc2)CC1`: the AC50 in [6] is 77.4 µM (active). Besides, the IC50 on Nonstructural protein 1 is 18.9 µM (active).

`Oc1ccc(Cl)cc1N=Nc1ccccc1`: the IC50 in experiment [2] was 7.8 µM (active); at Caspase-3, 23.6 µM (active); in [3], 35.4 µM (active); in experiment [4], > 100 µM (inactive).

Consider `CC(C)(C)C(=O)Nc1ccccc1C(=O)NCCCn1ccnc1`, for which, in experiment [6], the AC50 was 131 µM (active).

As for `COc1ccc(Br)cc1CNC(=O)C1CCN(S(=O)(=O)N2CCC(C)CC2)CC1`, the values for the IC50 at Phospholipase A2 and at Cysteine protease ATG4B were 6.6 µM (active) and 9.71 µM (active), respectively.

Consider `COc1ccc(CCNC(=O)c2c(C)cc(=O)oc2C)cc1OC`, for which, in [7], the AC50 was 57.6 µM (active).

Turning to `CC(=O)Nc1ccc(Oc2nc(-c3ccccn3)nc3ccccc23)cc1`, the AC50 in experiment [6] was 106 µM (active). In addition, the IC50 in experiment [8] is 43.5 µM (active).

With `CC[C@]12c3[nH]c4ccc(OC)cc4c3CCN1C(=O)C(CC(=O)NCCCN(C)C)C[C@@H]2C(=O)N1CCN(C(=O)c2ccco2)CC1` (stereo partly specified), the IC50 in [1] is 35.3 µM (inactive).

Take `CNC[C@@H]1Oc2cc(C#CC3CCCC3)ccc2S(=O)(=O)N([C@@H](C)CO)C[C@@H]1C`: the AC50 in experiment [7] is 4.31 µM (active).

By IC50 is commonly meant the concentration that gives 50% inhibition. By EC50 is commonly meant the concentration that produces a half-maximal response. For orientation: AC50 means the concentration at which the activity in the assay is half-maximal.
